According to patent US11168047B2, “Cocrystal of 2-[(1R,6R)-6-isopropenyl-3-methylcyclohex-2-en-1-yl]-5-pentylbenzene-l,3-diol” (ENANTIA, S.L., priority 2017, dated 2021):

Experiments:
[1] = in humans; cited from earlier work
[2] = open vial, 40° C. and 75±5% relative humidity
Description: The aim of the study is to evaluate the stability of cocrystal Form I of the present invention.
Cocrystal Form I of the present invention obtained by the process disclosed in section 1.1.B.1.
Cocrystal Form I (55 mg) is stored in an open vial and exposed to accelerated stability conditions (40° C. and 75±5% relative humidity) according to ICH guidelines (Guidance for Industry Q1A(R2) Stability Testing of New Drug Substances and Products—available on the website http://www.ich.org/products/guidelines/quality/quality-single/article/stability-testing-of-new-drug-substances-and-products.html on Aug. 4, 2017).

| SMILES | oral bioavailability [1] | stability (solid form) [2] |
| --- | --- | --- |
| C=C(C)[C@@H]1CCC(C)=C[C@H]1c1c(O)cc(CCCCC)cc1O [CBD, 2-[(1R,6R)-6-isopropenyl-3-methylcyclohex-2-en-1-yl]-5-pentylbenzene-1,3-diol] | 6-33% | – |
| C=C(C)[C@@H]1CCC(C)=C[C@H]1c1c(O)cc(CCCCC)cc1O.O=C(O)[C@@H]1CCCN1 [cocrystal Form I, cocrystal of 2-[(1R,6R)-6-isopropenyl-3-methylcyclohex-2-en-1-yl]-5-pentylbenzene-1,3-diol with L-proline] | – | remained stable for at least three weeks |
